This test concerns triple-negative human breast cancer cell line MDA-MB-468. Description: XTT cell killing / growth inhibition assay, MDA-MB-468. The class given is cell-based. The method, then: Standard XTT assays with a four-day drug treatment procedure were performed to measure the dose dependent cytotoxicity of IBR analogs in cultured cells. In brief, cells were plated on 96-well dishes one day before the drug treatment, followed by drug treatment on day 2 and XTT assay on day 6 after drug addition by using a commercial cell proliferation kit (Roche Scientific) following the instructions.
Triplicate sets were measured and compiled for final data presentation.
To test the possibility of inhibiting triple-negative breast cancer, the newly synthesized IBR2 analogues IBR101-124 were screened of their growth inhibition abilities using an XTT assay.
On the technique in general: Formazan colour is commonly taken as a measure of viable cells.

Where [1] appears, read: MDA-MB-468, XTT assay, four-day drug treatment, read-out: IC50.
Where [2] appears, read: growth inhibition, raw dataset for SAR analysis.
[3] abbreviates: Homo sapiens, 96 h, MDA-MB-468, XTT assay, four-day drug treatment, read-out: IC50.
Where [4] appears, read: Homo sapiens, MDA-MB-468, growth inhibition, raw dataset for SAR analysis, read-out: pIC50 (converted).

Read-outs that look alike come from different tables or passages of the source.

As a reminder, the pIC50 is the IC50 on a negative log10 scale, so that one unit is a factor of ten. Low readings indicate a large IC50, high ones a small IC50. For `COc1nccc2c(C3c4ccccc4C=CN3S(=O)(=O)Cc3ccccc3)c[nH]c12` (racemic) [IBR123], the “IC50 compared with that of the parental compound IBR2 (in words)” value (shortened to “IC50 compared with that”) (MDA-MB-468) was “significantly lower”. Besides, the IC50 under setting [1] worked out at 6.3 µM. For the same molecule, under setting [2], the pIC50 is 5.20.
Regarding `O=S(=O)(Cc1ccccc1)N1CCc2ccccc2[C@@H]1c1c[nH]c2ccccc12` [IBR101], where the note is “MDA-MB-468”, the “IC50 compared with that” value was “slightly lower”. Further, the IC50 under setting [1] was found to be 11.7 µM. Moreover, under setting [2], the pIC50 is 4.93.
The like results for `O=S(=O)(Cc1ccccc1)N1CCc2ccccc2[C@H]1c1c[nH]c2ccccc12` [IBR102] were, in that order, “slightly lower”, 13.2 µM and 4.88.
In the same order, the values of `O=S(=O)(Cc1ccccc1F)N1CCc2ccccc2[C@@H]1c1c[nH]c2ccccc12` [IBR103] are “slightly lower”, 12.7 µM and 4.90.
Consider `O=S(=O)(Cc1ccccc1F)N1CCc2ccccc2[C@H]1c1c[nH]c2ccccc12` [IBR104], for which, under setting [1], the IC50 was found to be 19.2 µM. Under setting [2], this molecule yielded a pIC50 of 4.72.
`O=S(=O)(Cc1cccc(F)c1)N1CCc2ccccc2[C@@H]1c1c[nH]c2ccccc12` [IBR105]: the “IC50 compared with that” value (MDA-MB-468) was “slightly lower”. Under setting [1], the IC50 came to 14.2 µM. Besides, the pIC50 under setting [2] is on record as 4.85.
On to `O=S(=O)(Cc1cccc(F)c1)N1CCc2ccccc2[C@H]1c1c[nH]c2ccccc12` [IBR106], for which the IC50 under setting [1] came to 17.2 µM. In addition, the pIC50 under setting [2] is 4.76.
Regarding `O=S(=O)(Cc1ccc(F)cc1)N1CCc2ccccc2[C@@H]1c1c[nH]c2ccccc12` [IBR107], the “IC50 compared with that” value (MDA-MB-468) was “slightly lower”. In addition, under setting [1], the IC50 came to 11.2 µM. The molecule further showed a pIC50 under setting [2] of 4.95.
With `O=S(=O)(Cc1ccc(F)cc1)N1CCc2ccccc2[C@H]1c1c[nH]c2ccccc12` [IBR108], the IC50 under setting [1] is 25.7 µM. Also, the pIC50 under setting [2] is recorded as 4.59.
For the molecule `O=S(=O)(Cc1ccccc1C(F)(F)F)N1CCc2ccccc2[C@@H]1c1c[nH]c2ccccc12` [IBR109], for the setting “MDA-MB-468”, the “IC50 compared with that” value is listed as “slightly lower”. Besides, the IC50 under setting [1] worked out at 14.8 µM. The pIC50 under setting [2] was determined as 4.83.
Consider `O=S(=O)(Cc1ccccc1C(F)(F)F)N1CCc2ccccc2[C@H]1c1c[nH]c2ccccc12` [IBR110], for which the IC50 under setting [1] worked out at 16.7 µM. Under setting [2], this molecule registered a pIC50 of 4.78.
`O=S(=O)(Cc1cccc(C(F)(F)F)c1)N1CCc2ccccc2[C@@H]1c1c[nH]c2ccccc12` [IBR111]: the “IC50 compared with that” value (MDA-MB-468) was “slightly lower”. In addition, the IC50 under setting [1] turned out to be 11.1 µM. Moreover, under setting [2], the pIC50 is given as 4.95.
For `O=S(=O)(Cc1cccc(C(F)(F)F)c1)N1CCc2ccccc2[C@H]1c1c[nH]c2ccccc12` [IBR112], the IC50 under setting [1] was found to be 22.2 µM. Also, the pIC50 under setting [2] is given as 4.65.
Consider `O=S(=O)(Cc1ccc(C(F)(F)F)cc1)N1CCc2ccccc2[C@@H]1c1c[nH]c2ccccc12` [IBR113], for which the “IC50 compared with that” value (MDA-MB-468) was “slightly lower”. Under setting [1], the IC50 was 13.6 µM. Under setting [2], the pIC50 was 4.87.
Regarding `O=S(=O)(Cc1ccc(C(F)(F)F)cc1)N1CCc2ccccc2[C@H]1c1c[nH]c2ccccc12` [IBR114], the IC50 under setting [1] turned out to be 20.7 µM. Also, under setting [2], the pIC50 worked out at 4.68.
As to `O=S(=O)(Cc1ccccc1)N1CC=Cc2ccccc2[C@@H]1c1c[nH]c2ccccc12` [IBR115], the “IC50 compared with that” value (MDA-MB-468) is reported as “slightly lower”. For the same molecule, for the setting “MDA-MB-468, XTT assay”, the “growth inhibition activity (in words)” value is on record as “minimal change of activity”. Under setting [1], the IC50 was 14.7 µM. Moreover, the pIC50 under setting [2] is on record as 4.83.
Take `O=S(=O)(Cc1ccccc1)N1CC=Cc2ccccc2[C@H]1c1c[nH]c2ccccc12` [IBR116]: the “growth inhibition activity (in words)” value (MDA-MB-468, XTT assay) was “almost complete loss of function”. Besides, the IC50 under setting [1] was more than 50 µM. The molecule also showed a pIC50 under setting [2] not above 4.30.
Turning to `O=S(=O)(Cc1ccccc1)N1CCc2ccccc2[C@@H]1c1n[nH]c2ccccc12` [IBR117, (R)-1-(1H-Indazol-3-yl)-2-phenylmethanesulfonyl-1,2,3,4-tetrahydro-isoquinoline], the IC50 was 9.5 µM under setting [3] and 9.55 µM under setting [4]. Where the note is “MDA-MB-468”, the “IC50 compared with that” value is “significantly lower”.
In the same order, the values of `O=S(=O)(Cc1ccccc1)N1CCc2ccccc2[C@H]1c1n[nH]c2ccccc12` [IBR118, (S)-1-(1H-Indazol-3-yl)-2-phenylmethanesulfonyl-1,2,3,4-tetrahydro-isoquinoline] are 14.3 µM, 14.5 µM and “slightly lower”.
Regarding `Nc1ncc([C@@H]2c3ccccc3CCN2S(=O)(=O)Cc2ccccc2)s1` [IBR119, 5-((S)-2-Phenylmethanesulfonyl-1,2,3,4-tetrahydro-isoquinolin-1-yl)thiazol-2-ylamine], the IC50 is, setting by setting: under setting [3], more than 25 µM; under setting [4], not below 25.1 µM.
Turning to `O=S(=O)(Cc1ccccc1)N1Cc2ccccc2[C@H]1c1c[nH]c2ccccc12` [IBR121, (S)-3-(2-(benzylsulfonyl)isoindolin-1-yl)-1H-indole], the IC50 by setting is: under setting [3], more than 12 µM; under setting [4], not below 12 µM.
On to `COc1cc2c(C3c4ccccc4C=CN3S(=O)(=O)Cc3ccccc3)c[nH]c2cn1` (centres unmarked) [IBR122], for which, where the note is “MDA-MB-468”, the “IC50 compared with that” value was “slightly lower”. The IC50 under setting [1] turned out to be 12.7 µM. This molecule also gave a pIC50 under setting [2] of 4.90.
For the molecule `O=S(=O)(Cc1ccccc1)N1C=Cc2ccccc2C1c1c[nH]c2ncccc12` (centres unmarked) [IBR124], the “IC50 compared with that” value (MDA-MB-468) is reported as “significantly lower”. In addition, the IC50 under setting [1] came out at 6.2 µM. Moreover, the pIC50 under setting [2] was found to be 5.21.

These data come from patent US10730864B2, “RAD51 inhibitors and uses thereof” (THE REGENTS OF THE UNIVERSITY OF CALIFORNIA, priority 2015, dated 2020).
